For experiment [1], the target named is Nuclear receptor ROR-alpha (Homo sapiens) (UniProt P35398). The experiment in a line: ThermoFluor Binding Assay (RORA).
The target in experiment [2] is Nuclear receptor ROR-beta (Homo sapiens) (UniProt Q92753). Description: ThermoFluor Binding Assay (RORB). On the technique in general: DSF heats the sample and reads unfolding from a dye or from intrinsic fluorescence.

One compound from ChEMBL document CHEMBL4800728, “Data for DCP probe JNJ-54119936” (2021) can be followed below.

Chain of Nuclear receptor ROR-beta (Homo sapiens) (Q92753 whole entry): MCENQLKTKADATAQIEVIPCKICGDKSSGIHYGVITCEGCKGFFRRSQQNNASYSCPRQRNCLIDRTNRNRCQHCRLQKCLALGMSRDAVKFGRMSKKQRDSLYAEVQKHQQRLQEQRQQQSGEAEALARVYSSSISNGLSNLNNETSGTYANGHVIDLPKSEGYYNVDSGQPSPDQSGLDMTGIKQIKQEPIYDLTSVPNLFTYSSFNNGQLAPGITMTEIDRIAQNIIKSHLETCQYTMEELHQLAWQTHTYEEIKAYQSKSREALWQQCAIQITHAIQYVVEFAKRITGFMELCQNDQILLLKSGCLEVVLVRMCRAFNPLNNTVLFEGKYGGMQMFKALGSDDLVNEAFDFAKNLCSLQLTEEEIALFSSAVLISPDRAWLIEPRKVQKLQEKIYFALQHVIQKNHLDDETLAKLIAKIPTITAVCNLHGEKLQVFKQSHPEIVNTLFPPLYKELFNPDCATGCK
Chain of Nuclear receptor ROR-alpha (Homo sapiens) (P35398 whole entry): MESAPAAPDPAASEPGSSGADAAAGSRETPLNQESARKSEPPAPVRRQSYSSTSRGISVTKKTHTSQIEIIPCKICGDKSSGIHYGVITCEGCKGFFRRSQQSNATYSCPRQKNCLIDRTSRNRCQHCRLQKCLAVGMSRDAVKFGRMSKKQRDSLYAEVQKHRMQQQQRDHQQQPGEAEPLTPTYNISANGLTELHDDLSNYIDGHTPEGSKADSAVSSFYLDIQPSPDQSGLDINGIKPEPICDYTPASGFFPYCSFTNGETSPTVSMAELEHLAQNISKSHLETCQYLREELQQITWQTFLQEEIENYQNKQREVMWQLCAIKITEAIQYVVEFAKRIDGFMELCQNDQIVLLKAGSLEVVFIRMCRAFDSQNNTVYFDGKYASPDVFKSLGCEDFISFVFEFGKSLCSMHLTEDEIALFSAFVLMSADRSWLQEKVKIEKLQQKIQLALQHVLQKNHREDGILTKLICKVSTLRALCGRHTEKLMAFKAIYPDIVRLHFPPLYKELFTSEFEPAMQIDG

As for `COc1nc2ccc([C@@](O)(c3ccc(Cl)cc3)c3cncn3C)cc2c(Cl)c1Cc1ccc(-n2cccn2)cc1`, the qKD in experiment [1] is 16.8 µM; in experiment [2], 40 µM.
